Assay results from US10329302B2, “Bicyclic-fused heteroaryl or aryl compounds” (Pfizer Inc., priority 2014, dated 2019).

Molecular target: human IRAK4 kinase domain (aa 154-460) (Homo sapiens (Human), UniProt Q9NWZ3)
Test: IRAK4 Enzymatic DELFIA Assay, Protocol B
Format: biochemical
Details: not given
Source text: IRAK4 Enzymatic DELFIA Assay, Protocol B.

Sequence of human IRAK4 kinase domain (aa 154-460) (Q9NWZ3 154-460): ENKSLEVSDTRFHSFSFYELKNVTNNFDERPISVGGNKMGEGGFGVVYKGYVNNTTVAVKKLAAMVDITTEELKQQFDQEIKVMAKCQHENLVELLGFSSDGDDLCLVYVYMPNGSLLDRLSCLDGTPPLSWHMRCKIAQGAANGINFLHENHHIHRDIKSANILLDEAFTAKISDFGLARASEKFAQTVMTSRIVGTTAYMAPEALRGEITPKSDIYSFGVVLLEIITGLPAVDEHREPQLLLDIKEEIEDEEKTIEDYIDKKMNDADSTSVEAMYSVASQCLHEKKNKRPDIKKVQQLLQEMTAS

Row | SMILES | IC50 [nM]
1 | CC(C)Oc1cc2c(OC3CC4CCC3C4)ccnc2cc1C(N)=O (stereo not drawn) [Example 16, 4-(bicyclo[2.2.1]hept-2-yloxy)-6-(propan-2-yloxy)quinoline-7-carboxamide] | 386

Same assay, conditions: human IRAK4 kinase domain (aa 154-460), 0.6 mM ATP (KM); read-out: IRAK4 DELFIA Protocol B IC50

Row | SMILES | IC50 [nM]
2 | CC(C)Oc1cc2c(OC[C@H]3COCCN3)nccc2cc1C(N)=O [Example 158, 1-[(3R)-morpholin-3-ylmethoxy]-7-(propan-2-yloxy)isoquinoline-6-carboxamide] | 1440
3 | CC(C)Oc1cc2c(OCC3CNC(=O)O3)nccc2cc1C(N)=O (stereo not drawn) [Example 35, 1-[(2-oxo-1,3-oxazolidin-5-yl)methoxy]-7-(propan-2-yloxy)isoquinoline-6-carboxamide] | 16
4 | CC(C)Oc1cc2c(OC[C@H]3CN(C(=O)CC#N)C[C@@H]3C)ccnc2cc1C(N)=O [Example 88, 4-{[(3R,4R)-1-(cyanoacetyl)-4-methylpyrrolidin-3-yl]methoxy}-6-(propan-2-yloxy)quinoline-7-carboxamide] | 292
5 | CC(C)Oc1cc2c(OCC3COCO3)ccnc2cc1C(N)=O (stereo not drawn) [Example 18, 4-(1,3-dioxolan-4-ylmethoxy)-6-(propan-2-yloxy)quinoline-7-carboxamide] | 507
6 | CC(=O)N1CCC(COc2nccc3cc(C(N)=O)c(OC(C)C)cc23)CC1 [Example 33, 1-[(1-acetylpiperidin-4-yl)methoxy]-7-(propan-2-yloxy)isoquinoline-6-carboxamide] | 2860
7 | CC(C)Oc1cc2c(OC3C[C@@H]4CN[C@H]3C4)nccc2cc1C(N)=O (stereo partly drawn) [Example 72, 1-[(1S,4R)-2-azabicyclo[2.2.1]hept-6-yloxy]-7-(propan-2-yloxy)isoquinoline-6-carboxamide] | 2620
8 | CC(C)Oc1cc2c(OC[C@@H]3CCNC3)cccc2cc1C(N)=O [Example 115, 3-(propan-2-yloxy)-5-[(3R)-pyrrolidin-3-ylmethoxy]naphthalene-2-carboxamide] | 61
9 | CC(C)Oc1cc2c(O[C@@H]3C[C@H]4C[C@@H]3CN(C(=O)CC#N)C4)nccc2cc1C(N)=O [Example 68, 1-{[(1R,5R,6R)-3-(cyanoacetyl)-3-azabicyclo[3.2.1]oct-6-yl]oxy}-7-(propan-2-yloxy)isoquinoline-6-carboxamide] | 320
10 | CC(C)Oc1cc2c(OCC3COC(=O)N3C)nccc2cc1C(N)=O (stereo not drawn) [Example 29, 1-[(3-methyl-2-oxo-1,3-oxazolidin-4-yl)methoxy]-7-(propan-2-yloxy)isoquinoline-6-carboxamide] | 76
11 | CC(C)Oc1cc2c(OC[C@H]3CNC[C@@H]3C(F)(F)F)nccc2cc1C(N)=O [Example 46, 7-(propan-2-yloxy)-1-{[(3R,4R)-4-(trifluoromethyl)pyrrolidin-3-yl]methoxy}isoquinoline-6-carboxamide] | 237
12 | CC(C)Oc1cc2c(OC[C@H]3[C@@H]4CNC[C@@H]43)nccc2cc1C(N)=O [Example 42, 1-[(1R,5S,6r)-3-azabicyclo[3.1.0]hex-6-ylmethoxy]-7-(propan-2-yloxy)isoquinoline-6-carboxamide] | 219
13 | CC(C)Oc1cc2c(OC3CC[C@@H]4CNC[C@H]34)ccnc2cc1C(N)=O (stereo partly drawn) [Example 21, 4-[(3aR,6aS)-octahydrocyclopenta[c]pyrrol-4-yloxy]-6-(propan-2-yloxy)quinoline-7-carboxamide] | 83
14 | CC(C)Oc1cc2c(OC[C@H]3CCNC3)ccnc2cc1C(N)=O [Example 50, 6-(propan-2-yloxy)-4-[(3S)-pyrrolidin-3-ylmethoxy]quinoline-7-carboxamide] | 701
15 | CC(C)Oc1cc2c(OC[C@H]3CCCNC3)ccnc2cc1C(N)=O [Example 2, 4-[(3S)-piperidin-3-ylmethoxy]-6-(propan-2-yloxy)quinoline-7-carboxamide] | 4500
16 | CC(C)Oc1cc2c(OCC3(F)CCNCC3)ccnc2cc1C(N)=O [Example 54, 4-[(4-fluoropiperidin-4-yl)methoxy]-6-(propan-2-yloxy)quinoline-7-carboxamide] | 2440
17 | CC(C)Oc1cc2c(OCC3(F)CCN(C(=O)CC#N)CC3)nccc2cc1C(N)=O [Example 76, 1-{[1-(cyanoacetyl)-4-fluoropiperidin-4-yl]methoxy}-7-(propan-2-yloxy)isoquinoline-6-carboxamide] | 1720
18 | CC(C)Oc1cc2c(OC[C@H]3CNCCO3)ccnc2cc1C(N)=O [Example 53, 4-[(2R)-morpholin-2-ylmethoxy]-6-(propan-2-yloxy)quinoline-7-carboxamide] | 2380
19 | CC(C)Oc1cc2c(OCC3(NC(=O)CC#N)CCCC3)nccc2cc1C(N)=O [Example 65, 1-({1-[(cyanoacetyl)amino]cyclopentyl}methoxy)-7-(propan-2-yloxy)isoquinoline-6-carboxamide] | 563
20 | CC(C)Oc1cc2c(O[C@H]3C[C@@H]4CN[C@H]3C4)nccc2cc1C(N)=O [Example 109, 1-[(1S,4R,6S)-2-azabicyclo[2.2.1]hept-6-yloxy]-7-(propan-2-yloxy)isoquinoline-6-carboxamide] | 1910

Row | SMILES | IC50 [nM]
21 | CC(C)Oc1cc2c(OCC3CCOC3)ccnc2cc1C(N)=O (stereo not drawn) [Example 10, 6-(propan-2-yloxy)-4-(tetrahydrofuran-3-ylmethoxy)quinoline-7-carboxamide] | 752
22 | CC(C)Oc1cc2c(OC[C@H]3CN(C(=O)CC#N)CCO3)nccc2cc1C(N)=O [Example 78, 1-{[(2R)-4-(cyanoacetyl)morpholin-2-yl]methoxy}-7-(propan-2-yloxy)isoquinoline-6-carboxamide] | 4740
23 | CC(C)Oc1cc2c(O[C@@H]3CC[C@H]4CC(=O)N[C@H]43)nccc2cc1C(N)=O [Example 130, 1-{[(3aS,6R,6aR)-2-oxooctahydrocyclopenta[b]pyrrol-6-yl]oxy}-7-(propan-2-yloxy)isoquinoline-6-carboxamide] | 417
24 | CC(C)Oc1cc2c(OC[C@@H]3CC(CO)C(=O)N3)nccc2cc1C(N)=O (stereo partly drawn) [Example 148, 1-{[(2S)-4-(hydroxymethyl)-5-oxopyrrolidin-2-yl]methoxy}-7-(propan-2-yloxy)isoquinoline-6-carboxamide] | 24
25 | CC(C)Oc1cc2c(OCC3CCNC(=O)C3)nccc2cc1C(N)=O (stereo not drawn) [Example 138, 1-[(2-oxopiperidin-4-yl)methoxy]-7-(propan-2-yloxy)isoquinoline-6-carboxamide] | 1040
26 | CC(C)Oc1cc2c(O[C@H]3CC[C@@H]4CN(C(=O)CC#N)C[C@@H]43)nccc2cc1C(N)=O [Example 79, 1-{[(3aR,4S,6aS)-2-(cyanoacetyl)octahydrocyclopenta[c]pyrrol-4-yl]oxy}-7-(propan-2-yloxy)isoquinoline-6-carboxamide] | 457
27 | CC(C)Oc1cc2c(O[C@H]3C[C@@H]4C[C@H]3CN4C(=O)CC#N)nccc2cc1C(N)=O [Example 74, 1-{[(1S,4S,5S)-2-(cyanoacetyl)-2-azabicyclo[2.2.1]hept-5-yl]oxy}-7-(propan-2-yloxy)isoquinoline-6-carboxamide] | 43
28 | CC(C)Oc1cc2c(O[C@@H]3CC4CC[C@H]3C4)ccnc2cc1C(N)=O [Example 19, 4-[(1S,2R)-bicyclo[2.2.1]hept-2-yloxy]-6-(propan-2-yloxy)quinoline-7-carboxamide] | 354
29 | CC(C)Oc1cc2c(OC[C@H]3CCCO3)ccnc2cc1C(N)=O [Example 15, 6-(propan-2-yloxy)-4-[(2R)-tetrahydrofuran-2-ylmethoxy]quinoline-7-carboxamide] | 2970
30 | CC(C)Oc1cc2c(OC[C@@H]3CNCCO3)ccnc2cc1C(N)=O [Example 51, 4-[(2S)-morpholin-2-ylmethoxy]-6-(propan-2-yloxy)quinoline-7-carboxamide] | 2410
31 | CC(C)Oc1cc2c(OC[C@]34CNC[C@H]3C4)nccc2cc1C(N)=O [Example 139, 1-[(1S,5S)-3-azabicyclo[3.1.0]hex-1-ylmethoxy]-7-(propan-2-yloxy)isoquinoline-6-carboxamide] | 256
32 | CC(C)Oc1cc2c(OC[C@@]34CNCC[C@@H]3C4)nccc2cc1C(N)=O [Example 161, 1-[(1R,6S)-3-azabicyclo[4.1.0]hept-1-ylmethoxy]-7-(propan-2-yloxy)isoquinoline-6-carboxamide] | 88
33 | CC(C)Oc1cc2c(OC[C@@H]3CCN(C(=O)CC#N)C3)nccc2cc1C(N)=O [Example 70, 1-{[(3R)-1-(cyanoacetyl)pyrrolidin-3-yl]methoxy}-7-(propan-2-yloxy)isoquinoline-6-carboxamide] | 423
34 | CC(C)Oc1cc2c(OC[C@@H]3CCCNC3)ccnc2cc1C(N)=O [Example 3, 4-[(3R)-piperidin-3-ylmethoxy]-6-(propan-2-yloxy)quinoline-7-carboxamide] | 2240
35 | CC(C)Oc1cc2c(OC[C@@]34C[C@@H]3CN(C(=O)CC#N)C4)ccnc2cc1C(N)=O [Example 94, 4-{[(1S,5S)-3-(cyanoacetyl)-3-azabicyclo[3.1.0]hex-1-yl]methoxy}-6-(propan-2-yloxy)quinoline-7-carboxamide] | 526
36 | CC(C)Oc1cc2c(OC[C@@H]3CN(C(=O)CC#N)CCO3)nccc2cc1C(N)=O [Example 75, 1-{[(2S)-4-(cyanoacetyl)morpholin-2-yl]methoxy}-7-(propan-2-yloxy)isoquinoline-6-carboxamide] | 4040
37 | CC(C)Oc1cc2c(OCC3CCC3)ccnc2cc1C(N)=O [Example 9, 4-(cyclobutylmethoxy)-6-(propan-2-yloxy)quinoline-7-carboxamide] | 598
38 | CC[C@H]1CN(C(=O)CC#N)C[C@@H]1COc1nccc2cc(C(N)=O)c(OC(C)C)cc12 [Example 80, 1-{[(3R,4R)-1-(cyanoacetyl)-4-ethylpyrrolidin-3-yl]methoxy}-7-(propan-2-yloxy)isoquinoline-6-carboxamide] | 333
39 | CC(C)Oc1cc2c(OC[C@@H]3CN(C(=O)CC#N)CCO3)ccnc2cc1C(N)=O [Example 98, 4-{[(2S)-4-(cyanoacetyl)morpholin-2-yl]methoxy}-6-(propan-2-yloxy)quinoline-7-carboxamide] | 575
